Reference: PubChem BioAssay AID651761 (The Scripps Research Institute Molecular Screening Center, 2012)
Where “and” joins values, the source holds several entries; their conditions need not be identical. Equal values may be shown once. Calls of active or inactive are those of the source. How the calls were made is not given here.

Target: Perilipin-5 (Homo sapiens) + 1-acylglycerol-3-phosphate O-acyltransferase ABHD5 (Homo sapiens) (UniProt Q00G26+Q8WTS1)
Test: blockers of ABHD5 binding to perilipin-5 – biochemical, luminescence, late-stage follow-up (AID 651761)
Settings: biochemical ABHD5-PLIN5 interaction

Perilipin-5 (Homo sapiens) + 1-acylglycerol-3-phosphate O-acyltransferase ABHD5 (Homo sapiens), sequence (Q00G26 whole entry, looked up): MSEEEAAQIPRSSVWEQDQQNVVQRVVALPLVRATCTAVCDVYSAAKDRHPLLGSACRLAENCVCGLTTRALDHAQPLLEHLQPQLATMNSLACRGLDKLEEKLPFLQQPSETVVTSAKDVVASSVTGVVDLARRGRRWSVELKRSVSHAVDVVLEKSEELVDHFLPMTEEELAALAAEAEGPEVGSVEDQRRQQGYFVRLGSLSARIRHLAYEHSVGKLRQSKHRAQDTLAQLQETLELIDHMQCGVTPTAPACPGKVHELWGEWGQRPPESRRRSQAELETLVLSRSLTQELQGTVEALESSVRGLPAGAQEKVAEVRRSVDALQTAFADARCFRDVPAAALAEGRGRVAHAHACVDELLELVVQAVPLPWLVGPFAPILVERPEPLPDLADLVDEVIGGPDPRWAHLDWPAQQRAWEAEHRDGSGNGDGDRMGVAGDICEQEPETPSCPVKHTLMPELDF
Perilipin-5 (Homo sapiens) + 1-acylglycerol-3-phosphate O-acyltransferase ABHD5 (Homo sapiens), sequence (Q8WTS1 whole entry, looked up): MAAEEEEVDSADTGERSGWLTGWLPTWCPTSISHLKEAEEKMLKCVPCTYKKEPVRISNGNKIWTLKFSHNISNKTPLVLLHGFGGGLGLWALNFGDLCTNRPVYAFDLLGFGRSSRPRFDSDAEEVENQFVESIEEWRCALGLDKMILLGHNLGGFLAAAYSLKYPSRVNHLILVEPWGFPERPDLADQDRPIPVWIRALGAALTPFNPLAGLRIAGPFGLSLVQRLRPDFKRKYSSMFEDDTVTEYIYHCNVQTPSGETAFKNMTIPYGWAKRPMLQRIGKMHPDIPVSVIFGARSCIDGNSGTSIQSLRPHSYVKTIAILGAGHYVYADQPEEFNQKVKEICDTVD

IC50	Structure (SMILES)
0.985 µM	CCN(CC)CCOCCOC(=O)C1(c2ccccc2)CCCC1
1.79 µM	CCN(CC)CCC(C)OC(c1ccccc1)c1ccccc1 (stereo unspecified)
4.32 µM	Cc1cc(C)c(NC(=O)C[N+](C)(C)CC(O)COc2cccc3ccccc23)c(C)c1 (stereo unspecified)
8.02 µM	C=C[C@]1(C)C[C@@H](OC(=O)CSCCN(CC)CC)[C@]2(C)C(C)CC[C@]3(CCC(=O)[C@H]32)[C@@H](C)[C@@H]1O (stereo partly specified)
> 39.8 µM (inactive)	CN(C)CCOC1(Cc2ccc(F)cc2)CCC(C(C)(C)C)CC1 (stereo unspecified)
6.96 µM	COc1ccc(C)c2sc(N(CCN(C)C)C(=O)/C=C/c3cccs3)nc12
inactive	CCN(CC)CCNC(=O)c1ccc(NC(=O)c2cn(-c3ccccc3)nc2-c2cccs2)cc1
1.79 µM	CCOC(=O)c1c(NC(C)=O)sc2c1CCC(C=O)=C2Sc1ccccc1
3.02 µM	CC1=CC(C)(C)Nc2ccc(OC(=O)C(C)N3C(=O)c4ccccc4C3=O)cc21 (stereo unspecified)
1.11 µM	CCN(CC)CCOc1ccc(/C(=C(/Cl)c2ccccc2)c2ccccc2)cc1
4.11 µM	Cc1cc(C)c2nc(NNC(=O)c3ccc(S(=O)(=O)N4CCCC(C)C4)cc3)sc2c1 (stereo unspecified)
5.67 µM	CCN(CC)CCN(CC(=O)Nc1c(C)cc(C)cc1C)C(=O)c1ccccc1
inactive	Cc1cc(C)c(NC(=O)CN2CCN3CCCC3C2)c(C)c1 (stereo unspecified)
8.56 µM	CC1Sc2ccc(S(=O)(=O)N3CCC(C(=O)NCc4ccc(Cl)cc4)CC3)cc2NC1=O (stereo unspecified)
inactive	COc1ccccc1-c1cc(C(=O)NC2CCN(C)CC2)c2ccc(Cl)c(C)c2n1

Further lines, the compound ahead of its results:

Structure (SMILES)	IC50
O=C(C[n+]1cccc(CNC(=O)c2ccc(OC(F)F)cc2)c1)Nc1cccc(C(F)(F)F)c1	inactive
O=c1[nH]c(C2CCN(S(=O)(=O)c3ccc(S(=O)(=O)NC4CC4)cc3)CC2)nc2c1nnn2Cc1ccc(F)cc1	3.42 µM
O=C(/C(=C/O)N=Nc1ccc(Cl)cc1)c1ccncc1	9.67 µM
CCCCNC(=O)Nc1ccc2c(c1)N(C)C(=O)c1ccccc1S2	3.02 µM
CN(C)CCCN(C(=O)CCc1ccccc1)c1nc2ccc(Cl)cc2s1	7.07 µM
COc1cc(OC)cc(C(=O)NC(=S)N(Cc2ccccc2)C(C)C)c1	1.44 µM
CN1CCC(=C2c3ccccc3CC(=O)c3sccc32)CC1	> 39.8 µM (inactive)
CCCCOC(=O)Nc1cc(C(=O)OC)ccc1C(=O)OC	5.26 µM
CC(CCc1ccco1)NC(=O)CCc1nnc2ccc(NCc3ccccc3Cl)nn12 (stereo unspecified)	1.01 µM
CCOC(=O)c1c(NC(=O)/C=C/C(=O)O)sc(C)c1-c1ccc(C(C)(C)C)cc1	5.05 µM
CC(=O)Cc1cc(O)c2ccccc2c1OC(=O)c1ccc(Br)cc1	2.68 µM
FC(F)(F)c1cccc(NC(=S)N(CCCN2CCCC2)Cc2cccn2Cc2ccc(Cl)cc2)c1	inactive
CC1CCN(S(=O)(=O)c2ccc(NC(=O)Cc3cccs3)cc2)CC1	8.64 µM
CC(C)c1ccc(N2C=Nc3ccc(C(C)C)cc3C2)cc1	1.56 µM
CC(=O)Cc1cc(O)c2ccccc2c1OC(=O)c1ccccc1	1.52 µM
COc1cc(C)c2sc3ccccc3c(=O)c2c1NCCN(C)C	> 39.8 µM (inactive)

Structure (SMILES)	IC50
NC(=NCCCCCCN=C(N)/N=C(\N)Nc1ccc(Cl)cc1)/N=C(\N)Nc1ccc(Cl)cc1	2.64 µM
CCCNC(=O)Nc1ccc2c(c1)N(C)C(=O)c1ccccc1S2	7.42 µM
COc1cc2c(cc1OC)C(C)N(CCc1ccc(Cl)cc1)CC2 (stereo unspecified)	inactive
Cc1ccc2nc3cc([N+](=O)[O-])cc([N+](=O)[O-])c3cc2c1	0.619 µM
CN(C)CCN(Cc1ccco1)c1ccccn1	> 39.8 µM (inactive)
Cc1nc2c(o1)CCc1ccccc1C2N1CCN(C)CC1 (stereo unspecified)	2.75 µM
COCCN(CCOC)c1nc(N)c2c(N)nc3c(c2c1C#N)CC(=O)N3Cc1ccc(Cl)cc1	> 39.8 µM (inactive)
CC(=O)Nc1ccc(S(=O)(=O)N2c3ccc(F)cc3CCC2C)cc1 (stereo unspecified)	6.48 µM
Cc1ccc2c(CC(=O)N3CCN(S(=O)(=O)c4ccc5c(c4)OCCO5)CC3)coc2c1	5 µM and 5.03 µM
CCOc1cc(N)c(Cl)cc1C(=O)NCC1CN(Cc2ccc(F)cc2)CCO1 (stereo unspecified)	1.34 µM
COc1ccc(NC(=S)N(CCCN2CCCC2)Cc2cccn2Cc2ccc(Cl)cc2)cc1Cl	inactive
CC(=O)Oc1ccc(C23c4ccccc4C2(OC(C)=O)c2cc(OC(C)=O)ccc23)cc1 (stereo unspecified)	> 39.8 µM (inactive)
CN(C)CCCN(C(=O)CCc1ccccc1)c1nc2ccc(Br)cc2s1	8.16 µM
O=c1[nH]c(C2CCN(S(=O)(=O)c3ccc(F)cc3)CC2)nc2c1nnn2Cc1ccc2c(c1)OCCO2	inactive
CC1CCN(S(=O)(=O)c2ccc(NC(=O)Cc3ccccc3)cc2)CC1	8.77 µM
